We go through three compounds from US20240000791A1, “Methods of Using 4-Amino-N-[4-(Methoxymethyl)Phenyl]-7-(1-Methylcyclopropyl)-6-(3-Morpholinoprop-1-YN-1-YL)-7H-Pyrrolo[2,3-D]Pyrimidine-5-Carboxamide for the Treatment of Tumors” (Helsinn Healthcare SA, priority 2020, published 2024).

In assay [1] the target is T1, FLT3 (Homo sapiens, UniProt P36888).
T1 sequence (P36888 27-993): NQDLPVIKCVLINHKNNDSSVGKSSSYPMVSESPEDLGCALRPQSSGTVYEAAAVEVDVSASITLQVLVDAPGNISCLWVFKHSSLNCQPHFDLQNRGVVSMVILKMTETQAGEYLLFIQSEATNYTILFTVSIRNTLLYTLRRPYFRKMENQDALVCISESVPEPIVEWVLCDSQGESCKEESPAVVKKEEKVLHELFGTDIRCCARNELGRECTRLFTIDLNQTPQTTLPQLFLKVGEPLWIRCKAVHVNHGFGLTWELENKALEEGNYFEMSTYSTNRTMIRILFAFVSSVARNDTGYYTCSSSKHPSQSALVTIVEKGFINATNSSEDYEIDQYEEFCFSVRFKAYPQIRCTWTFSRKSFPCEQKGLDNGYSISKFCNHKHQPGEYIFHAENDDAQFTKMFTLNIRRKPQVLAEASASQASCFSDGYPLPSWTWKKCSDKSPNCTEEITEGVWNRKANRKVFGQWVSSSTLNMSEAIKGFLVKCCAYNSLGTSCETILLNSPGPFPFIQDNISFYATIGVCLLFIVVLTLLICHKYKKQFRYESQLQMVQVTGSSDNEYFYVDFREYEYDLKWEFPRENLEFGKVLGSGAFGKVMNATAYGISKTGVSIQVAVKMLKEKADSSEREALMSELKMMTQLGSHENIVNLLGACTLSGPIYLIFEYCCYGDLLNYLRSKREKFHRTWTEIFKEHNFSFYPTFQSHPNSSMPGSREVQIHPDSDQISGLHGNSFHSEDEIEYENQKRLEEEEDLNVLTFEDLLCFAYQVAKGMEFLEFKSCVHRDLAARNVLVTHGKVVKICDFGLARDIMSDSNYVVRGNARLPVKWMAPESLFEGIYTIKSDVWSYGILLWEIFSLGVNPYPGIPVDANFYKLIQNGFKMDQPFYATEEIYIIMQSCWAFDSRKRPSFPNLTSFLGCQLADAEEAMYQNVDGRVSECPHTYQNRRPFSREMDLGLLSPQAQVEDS
As to the kind of experiment: Kinase inhibition. It counts as biochemical.

Assay [2] concerns the target FLT4 (Homo sapiens, UniProt P35916). As to the kind of experiment: Kinase inhibition. It is filed as biochemical.
For assay [3], the target named is PDGFRα (Homo sapiens, UniProt P16234). As to the kind of experiment: Kinase inhibition. It is filed as biochemical.
In assay [4] the target is PDGFRβ (Homo sapiens, UniProt P09619). As to the kind of experiment: Kinase inhibition. It counts as biochemical.
Assay [5] addresses FGFR1 (Homo sapiens, UniProt P11362). As to the kind of experiment: Kinase inhibition. It counts as biochemical.
Assay [6] addresses FGFR3 (Homo sapiens, UniProt P22607). The assay can be described thus: Kinase inhibition. It counts as biochemical.
Assay [7] deals with DDR1 (Homo sapiens, UniProt Q08345). As to the kind of experiment: Kinase inhibition. It is filed as biochemical.
Assay [8] has as its target T2, DDR2 (Homo sapiens, UniProt Q16832).
T2 sequence (Q16832 22-855): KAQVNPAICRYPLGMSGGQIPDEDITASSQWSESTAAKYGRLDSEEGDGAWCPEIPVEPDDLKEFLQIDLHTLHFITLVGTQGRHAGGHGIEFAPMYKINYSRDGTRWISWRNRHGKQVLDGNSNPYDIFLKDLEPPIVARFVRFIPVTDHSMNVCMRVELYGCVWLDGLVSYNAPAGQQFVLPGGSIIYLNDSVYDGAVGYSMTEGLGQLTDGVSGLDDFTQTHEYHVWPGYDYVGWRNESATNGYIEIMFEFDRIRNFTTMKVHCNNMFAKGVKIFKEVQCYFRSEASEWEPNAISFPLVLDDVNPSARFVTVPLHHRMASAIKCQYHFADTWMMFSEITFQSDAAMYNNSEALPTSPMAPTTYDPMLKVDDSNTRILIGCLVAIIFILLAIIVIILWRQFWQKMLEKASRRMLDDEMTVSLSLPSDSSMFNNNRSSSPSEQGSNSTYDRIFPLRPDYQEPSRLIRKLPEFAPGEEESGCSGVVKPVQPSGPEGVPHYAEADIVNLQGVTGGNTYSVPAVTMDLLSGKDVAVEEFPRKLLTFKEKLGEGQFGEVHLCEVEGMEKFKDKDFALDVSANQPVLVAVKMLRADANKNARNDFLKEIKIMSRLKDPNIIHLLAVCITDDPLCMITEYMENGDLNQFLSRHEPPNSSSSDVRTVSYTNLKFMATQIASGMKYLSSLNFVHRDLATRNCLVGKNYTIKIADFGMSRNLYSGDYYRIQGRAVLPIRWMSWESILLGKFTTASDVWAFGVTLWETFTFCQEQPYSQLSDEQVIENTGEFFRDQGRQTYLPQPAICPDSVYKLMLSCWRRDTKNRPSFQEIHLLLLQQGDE
The assay can be described thus: Kinase inhibition. It is filed as biochemical.

In assay [9] the target is JAK1 (Homo sapiens, UniProt P23458). As to the kind of experiment: Kinase inhibition. It counts as biochemical.
For assay [10], the target named is JAK2 (Homo sapiens, UniProt O60674). The assay can be described thus: Kinase inhibition. It counts as biochemical.
Assay [11] has as its system Ba/F3 KIF5B-RET V804M. As to the kind of experiment: Cell viability CellTiter-Glo 2.0. It is filed as cell-based. To be noted: Mus musculus, read-out: GI50 values. In general terms: Cellular ATP, detected with luciferase, serves as a proxy for viable cell number.
For assay [12], the system named is Ba/F3 KIF5B-RET G810S. The assay can be described thus: Cell viability CellTiter-Glo 2.0. It is filed as cell-based. As to conditions: Mus musculus, read-out: GI50 values.
In assay [13] the test system is Ba/F3 KIF5B-RET^G810R cells. As to the kind of experiment: Ba/F3 KIF5B-RET G810R subcutaneous tumor model, first study. It counts as in vivo, mouse. To be noted: 14 days; for tumor regrowth at the end of the study: 30 mg/kg bid oral.
The subject of assay [14] is Ba/F3 KIF5B-RET^G810R cells. The assay can be described thus: Ba/F3 KIF5B-RET G810R subcutaneous tumor model, second study. It is filed as in vivo, mouse. To be noted: for tumor regrowth: 30 mg/kg bid, day 15.
Setting [15] is: read-out: IC50 kinase inhibition, FLT3.
Setting [16] is: read-out: IC50 kinase inhibition, FLT4.
Setting [17] is: read-out: IC50 kinase inhibition, PDGFRα.
The mark [18] stands for this setting: read-out: IC50 kinase inhibition, PDGFRβ.
The mark [19] stands for this setting: read-out: IC50 kinase inhibition, FGFR1.
[20] abbreviates: read-out: IC50 kinase inhibition, FGFR3.
Setting [21] is: read-out: IC50 kinase inhibition, DDR1.
The mark [22] stands for this setting: read-out: IC50 kinase inhibition, DDR2.
Where [23] appears, read: read-out: IC50 kinase inhibition, JAK1.
[24] abbreviates: read-out: IC50 kinase inhibition, JAK2.

Where two headings read alike, the source gives them in different places.

Chain of PDGFRβ (P09619 33-1106): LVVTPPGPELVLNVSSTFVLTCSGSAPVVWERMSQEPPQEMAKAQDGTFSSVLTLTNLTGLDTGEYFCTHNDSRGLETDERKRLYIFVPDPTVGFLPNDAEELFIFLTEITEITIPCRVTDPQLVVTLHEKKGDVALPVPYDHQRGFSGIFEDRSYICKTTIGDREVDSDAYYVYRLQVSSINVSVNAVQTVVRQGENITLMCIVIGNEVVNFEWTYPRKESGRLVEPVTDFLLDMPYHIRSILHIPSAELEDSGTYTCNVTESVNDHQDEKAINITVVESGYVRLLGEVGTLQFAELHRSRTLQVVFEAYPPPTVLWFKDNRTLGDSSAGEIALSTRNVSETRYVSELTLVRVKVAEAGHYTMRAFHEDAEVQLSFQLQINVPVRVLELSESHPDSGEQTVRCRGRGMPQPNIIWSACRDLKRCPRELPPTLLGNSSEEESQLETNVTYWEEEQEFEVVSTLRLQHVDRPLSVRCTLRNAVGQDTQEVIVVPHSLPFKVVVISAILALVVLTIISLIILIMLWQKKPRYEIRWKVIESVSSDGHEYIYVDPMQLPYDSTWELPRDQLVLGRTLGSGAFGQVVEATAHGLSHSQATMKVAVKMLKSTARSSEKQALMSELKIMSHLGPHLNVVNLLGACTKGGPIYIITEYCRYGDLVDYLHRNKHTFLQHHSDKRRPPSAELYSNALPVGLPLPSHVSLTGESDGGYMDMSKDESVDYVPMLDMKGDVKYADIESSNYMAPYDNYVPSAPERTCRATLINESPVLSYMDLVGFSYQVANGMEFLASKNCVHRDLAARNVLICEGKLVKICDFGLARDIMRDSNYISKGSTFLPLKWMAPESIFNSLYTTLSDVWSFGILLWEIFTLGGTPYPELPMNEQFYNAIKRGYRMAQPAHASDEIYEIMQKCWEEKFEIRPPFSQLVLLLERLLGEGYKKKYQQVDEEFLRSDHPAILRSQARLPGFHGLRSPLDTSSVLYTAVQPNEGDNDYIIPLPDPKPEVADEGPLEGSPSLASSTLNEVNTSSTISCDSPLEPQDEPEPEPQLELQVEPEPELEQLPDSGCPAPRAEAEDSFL
Chain of FGFR3 (P22607 23-806): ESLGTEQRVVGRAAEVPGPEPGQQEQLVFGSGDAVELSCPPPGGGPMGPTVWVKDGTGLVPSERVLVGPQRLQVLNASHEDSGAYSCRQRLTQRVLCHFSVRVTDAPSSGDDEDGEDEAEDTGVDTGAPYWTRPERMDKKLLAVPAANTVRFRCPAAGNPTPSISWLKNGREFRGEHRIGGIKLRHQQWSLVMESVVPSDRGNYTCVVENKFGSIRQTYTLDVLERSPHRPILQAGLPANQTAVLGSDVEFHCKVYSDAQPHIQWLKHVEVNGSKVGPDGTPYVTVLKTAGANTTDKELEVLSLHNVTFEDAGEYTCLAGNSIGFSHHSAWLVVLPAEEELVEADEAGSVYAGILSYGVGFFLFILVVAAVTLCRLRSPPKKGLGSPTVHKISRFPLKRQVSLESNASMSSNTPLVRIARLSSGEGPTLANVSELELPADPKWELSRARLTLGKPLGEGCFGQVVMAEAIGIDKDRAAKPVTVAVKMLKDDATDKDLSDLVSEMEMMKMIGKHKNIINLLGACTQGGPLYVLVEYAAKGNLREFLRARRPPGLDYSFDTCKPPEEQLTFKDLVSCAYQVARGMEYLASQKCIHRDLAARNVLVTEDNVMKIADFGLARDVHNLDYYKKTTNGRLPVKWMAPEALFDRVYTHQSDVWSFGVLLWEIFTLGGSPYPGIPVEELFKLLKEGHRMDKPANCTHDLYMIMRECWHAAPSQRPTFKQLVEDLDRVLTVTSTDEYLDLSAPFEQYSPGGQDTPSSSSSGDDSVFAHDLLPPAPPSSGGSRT
Chain of DDR1 (Q08345 19-913): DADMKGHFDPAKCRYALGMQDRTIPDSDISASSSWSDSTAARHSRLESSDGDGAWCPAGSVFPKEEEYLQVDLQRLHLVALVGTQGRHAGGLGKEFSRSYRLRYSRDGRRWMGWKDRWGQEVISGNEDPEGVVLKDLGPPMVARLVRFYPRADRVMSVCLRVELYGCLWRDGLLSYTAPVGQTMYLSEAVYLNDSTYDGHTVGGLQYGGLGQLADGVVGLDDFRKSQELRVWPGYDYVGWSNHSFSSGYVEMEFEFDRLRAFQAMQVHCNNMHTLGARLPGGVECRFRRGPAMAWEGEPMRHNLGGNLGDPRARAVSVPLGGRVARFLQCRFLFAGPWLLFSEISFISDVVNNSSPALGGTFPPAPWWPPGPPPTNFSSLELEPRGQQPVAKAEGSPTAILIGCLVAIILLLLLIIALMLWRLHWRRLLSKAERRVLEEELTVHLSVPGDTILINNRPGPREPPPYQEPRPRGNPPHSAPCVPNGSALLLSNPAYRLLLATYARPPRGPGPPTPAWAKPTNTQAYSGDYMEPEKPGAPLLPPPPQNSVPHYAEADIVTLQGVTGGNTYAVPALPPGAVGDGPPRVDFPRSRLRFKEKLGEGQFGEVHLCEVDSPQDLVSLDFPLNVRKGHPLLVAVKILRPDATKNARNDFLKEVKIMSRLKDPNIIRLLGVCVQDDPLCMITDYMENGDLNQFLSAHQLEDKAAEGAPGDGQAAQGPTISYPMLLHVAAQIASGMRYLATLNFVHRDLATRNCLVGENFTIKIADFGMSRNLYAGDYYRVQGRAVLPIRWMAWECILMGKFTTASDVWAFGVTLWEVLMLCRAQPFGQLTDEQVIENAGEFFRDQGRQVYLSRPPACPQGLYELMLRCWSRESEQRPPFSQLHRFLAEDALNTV
Chain of FLT4 (P35916 25-1363): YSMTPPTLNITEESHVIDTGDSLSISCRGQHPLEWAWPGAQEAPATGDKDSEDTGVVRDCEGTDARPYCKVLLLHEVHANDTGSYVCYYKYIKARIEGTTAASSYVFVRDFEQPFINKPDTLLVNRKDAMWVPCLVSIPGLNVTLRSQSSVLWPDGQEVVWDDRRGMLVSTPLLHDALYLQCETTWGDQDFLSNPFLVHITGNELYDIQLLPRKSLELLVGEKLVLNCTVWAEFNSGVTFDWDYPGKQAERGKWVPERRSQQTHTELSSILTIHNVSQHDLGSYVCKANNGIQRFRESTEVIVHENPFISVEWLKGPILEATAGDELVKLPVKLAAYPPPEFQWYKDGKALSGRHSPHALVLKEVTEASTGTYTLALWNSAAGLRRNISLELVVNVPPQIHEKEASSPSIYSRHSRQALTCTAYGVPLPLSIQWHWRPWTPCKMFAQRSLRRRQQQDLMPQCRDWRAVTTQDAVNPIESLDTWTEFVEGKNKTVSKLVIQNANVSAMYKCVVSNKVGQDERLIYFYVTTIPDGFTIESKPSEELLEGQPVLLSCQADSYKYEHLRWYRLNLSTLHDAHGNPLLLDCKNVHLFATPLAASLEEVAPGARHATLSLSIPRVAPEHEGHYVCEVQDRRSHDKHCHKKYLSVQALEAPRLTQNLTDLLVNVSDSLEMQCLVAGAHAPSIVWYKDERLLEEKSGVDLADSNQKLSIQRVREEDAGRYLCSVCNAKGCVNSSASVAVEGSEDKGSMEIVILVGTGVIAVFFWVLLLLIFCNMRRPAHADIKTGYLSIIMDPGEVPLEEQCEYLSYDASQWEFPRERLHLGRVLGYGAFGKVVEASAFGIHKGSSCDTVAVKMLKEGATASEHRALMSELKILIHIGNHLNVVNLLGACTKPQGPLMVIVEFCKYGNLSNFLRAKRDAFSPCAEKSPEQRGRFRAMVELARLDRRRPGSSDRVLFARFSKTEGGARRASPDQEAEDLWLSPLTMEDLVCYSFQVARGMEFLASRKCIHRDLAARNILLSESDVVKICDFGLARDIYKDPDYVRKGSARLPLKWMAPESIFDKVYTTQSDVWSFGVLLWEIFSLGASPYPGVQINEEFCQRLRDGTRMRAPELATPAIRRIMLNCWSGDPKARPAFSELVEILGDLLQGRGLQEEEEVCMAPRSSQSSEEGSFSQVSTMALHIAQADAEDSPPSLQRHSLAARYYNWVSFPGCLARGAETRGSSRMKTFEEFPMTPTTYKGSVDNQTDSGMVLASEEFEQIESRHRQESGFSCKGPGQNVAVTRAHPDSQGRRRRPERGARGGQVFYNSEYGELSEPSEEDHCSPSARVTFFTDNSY
Chain of FGFR1 (P11362 22-822): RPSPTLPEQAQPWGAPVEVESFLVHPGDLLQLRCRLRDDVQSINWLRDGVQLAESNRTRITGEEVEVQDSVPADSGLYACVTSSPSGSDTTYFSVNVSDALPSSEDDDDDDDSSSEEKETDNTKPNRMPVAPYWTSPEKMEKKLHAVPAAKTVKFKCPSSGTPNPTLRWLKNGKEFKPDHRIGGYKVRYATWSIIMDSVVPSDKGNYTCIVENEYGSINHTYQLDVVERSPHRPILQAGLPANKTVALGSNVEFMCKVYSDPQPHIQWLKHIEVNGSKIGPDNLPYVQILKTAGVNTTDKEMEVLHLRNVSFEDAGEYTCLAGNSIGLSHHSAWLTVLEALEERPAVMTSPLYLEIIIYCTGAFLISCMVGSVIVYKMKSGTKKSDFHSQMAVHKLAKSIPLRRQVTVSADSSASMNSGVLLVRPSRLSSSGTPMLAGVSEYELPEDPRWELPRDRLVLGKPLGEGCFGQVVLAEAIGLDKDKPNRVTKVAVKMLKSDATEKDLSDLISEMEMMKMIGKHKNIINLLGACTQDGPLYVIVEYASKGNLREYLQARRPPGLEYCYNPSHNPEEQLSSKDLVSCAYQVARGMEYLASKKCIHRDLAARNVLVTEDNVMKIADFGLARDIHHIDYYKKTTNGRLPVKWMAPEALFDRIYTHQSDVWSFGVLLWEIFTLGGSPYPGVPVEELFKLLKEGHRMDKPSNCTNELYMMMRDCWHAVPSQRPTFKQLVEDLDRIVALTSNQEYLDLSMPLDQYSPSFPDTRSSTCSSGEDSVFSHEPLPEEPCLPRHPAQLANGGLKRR

`CO[C@]1(C(=O)N[C@@H](C)c2ccc(-n3cc(F)cn3)nc2)CC[C@H](c2nc(C)cc(Nc3cc(C)[nH]n3)n2)CC1` [BLU-667, pralsetinib]: the half-inhibitory concentration (IC50) came to 11 nM in assay [1] (setting [15]); 6.3 nM in [2] (setting [16]); 12 nM in assay [3] (setting [17]); 7.7 nM in assay [4] (setting [18]); 15 nM in [5] (setting [19]); 58 nM in assay [6] (setting [20]). In addition, the IC50 was determined as 7.1 nM in assay [7] (setting [21]), 7.7 nM in [8] (setting [22]), 2.6 nM in assay [9] (setting [23]) and 1.1 nM in [10] (setting [24]). The GI50 in assay [11] (BaF3, Ba/F3 KIF5B-RET V804M, 72 hours, mean±SD of three experiments) is 8.6 ± 0.58 nM; in assay [12] (BaF3, Ba/F3 KIF5B-RET G810S, 72 hours, mean±SD of three experiments) it was 50.6 ± 31.4 nM. The “tumor regrowth at the end of the study” value in assay [13] is listed as “trend to tumor regrowth”. Further, the tumor regrowth entry in [14] is “trend to tumor regrowth at day 15”.
Turning to `COCc1ccc(NC(=O)c2c(C#CCN3CCOCC3)n(C3(C)CC3)c3ncnc(N)c23)cc1` [HM06/TAS0953, 4-amino-N-(4-(methoxymethyl)phenyl)-7-(1-methylcyclopropyl)-6-(3-morpholinoprop-1-yn-1-yl)-7H-pyrrolo[2,3-d]pyrimidine-5-carboxamide], the IC50 in assay [1] is 911 nM; in assay [2], 150 nM; in assay [3] it was 735 nM; in assay [4], 2760 nM; in assay [5] it was 2720 nM; in assay [6], 2150 nM. Besides, the IC50 in [7] was 1190 nM; in assay [8], more than 3000 nM; in assay [9], more than 3000 nM; in [10], more than 3000 nM. Moreover, the 50% growth inhibitory concentration (GI50) in [11] (BaF3, 72 h) turned out to be 39.7 ± 4.6 nM; in assay [12] (BaF3, 72 h), 11.9 ± 3.6 nM. Also, the “tumor volume at the end of the study vs control” value in assay [13] (10 mg/kg bid oral) is on record as “significantly decreased tumor volume”. Besides, the “tumor regrowth at the end of the study” value in assay [13] is on record as “did not show tumor regrowth”. In addition, the “mean tumor volume on day 15 vs LOXO-292 and BLU-667 30 mg/kg bid” value in assay [14] (50 mg/kg bid) is “significantly lower in the HM06/TAS0953 group than in the LOXO-292 and BLU-667 groups”. Also, the tumor regression result in [14] (50 mg/kg bid) is on record as “consistent tumor regression”.
As to `COc1ccc(CN2C3CC2CN(c2ccc(-c4cc(OCC(C)(C)O)cn5ncc(C#N)c45)cn2)C3)cn1` [LOXO-292, selpercatinib], the IC50 in assay [1] (setting [15]) came to 22 nM; in [2] (setting [16]), 4 nM; in [3] (setting [17]), 44 nM; in assay [4] (setting [18]), 67 nM; in assay [5] (setting [19]), 64 nM; in assay [6] (setting [20]), 51 nM. Besides, the concentration for half-maximal inhibition (IC50) in assay [7] (setting [21]) was 103 nM; in assay [8] (setting [22]) it was 417 nM; in [9] (setting [23]) it was more than 3000 nM; in [10] (setting [24]) it was more than 3000 nM. In addition, the GI50 in assay [11] (BaF3, 72 h) was 33.3 ± 2.9 nM; in [12] (BaF3, 72 h), 166 ± 20 nM. In addition, the “tumor regrowth at the end of the study” value in [13] is given as “trend to tumor regrowth”. Also, the tumor regrowth entry in assay [14] was “trend to tumor regrowth at day 15”.

For orientation: IC50 means the midpoint of a concentration-inhibition curve. One may read the GI50 as the concentration at which growth is held to half of that of the control.
